Assay results reported in patent US7786107B2, “Modulators of muscarinic receptors” (Vertex Pharmaceuticals Incorporated, priority 2006, dated 2010).
pEC50: −log10 of the molar value.

How the values were obtained:
[1] = target: T1, M1 muscarinic receptor (Homo sapiens, UniProt P11229); experiment: Functional mobilization of intracellular calcium (FLIPR) in CHO cells expressing M1; type: cell-based; conditions: for pEC50: CHO cells expressing M1, calcium mobilization; for Emax: CHO, 100% efficacy is the maximum response obtained with the Carbachol control
T1 construct: expressed in transfected cells; host or cells: CHO
T1 sequence (P11229 1-460): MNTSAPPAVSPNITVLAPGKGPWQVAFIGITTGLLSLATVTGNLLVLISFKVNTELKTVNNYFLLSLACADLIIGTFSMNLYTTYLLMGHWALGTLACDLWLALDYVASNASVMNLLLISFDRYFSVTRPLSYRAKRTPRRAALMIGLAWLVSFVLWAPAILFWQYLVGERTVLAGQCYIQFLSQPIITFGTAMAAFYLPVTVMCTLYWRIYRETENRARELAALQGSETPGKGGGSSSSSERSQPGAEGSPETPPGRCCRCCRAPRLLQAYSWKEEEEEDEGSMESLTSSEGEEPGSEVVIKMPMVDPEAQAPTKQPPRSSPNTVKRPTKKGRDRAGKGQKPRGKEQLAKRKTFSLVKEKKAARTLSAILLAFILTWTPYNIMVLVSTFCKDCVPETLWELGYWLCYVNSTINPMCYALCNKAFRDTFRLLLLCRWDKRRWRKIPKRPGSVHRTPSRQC
Procedure: (§1) Functional Mobilization of Intracellular Calcium to Determine Muscarinic Receptor Activity:
(§2) CHO cells expressing muscarinic receptors (M1 to M5) are grown as monolayers in tissue culture flasks at 37° C. in a humidified atmosphere containing 5% CO2 and passaged every 3-5 days. The growth media is Dulbecco's modified eagles medium (DMEM, Gibco Cat#12430-054), containing 25 mM Hepes and supplemented with Fetal Bovine Serum (Hyclone, Cat#SH30071.03), 0.1 mM of MEM non-essential amino acids (GIBCO, Cat#11140-050), 1 mM MEM Sodium Pyruvate (GIBCO Cat#11360-070) and 100 units/ml of Penicillin G and 100 μg/ml of Streptomycin (GIBCO Cat#15140-122). The recombinant muscarinic receptor cell lines are grown under antibiotic pressure with media containing 25 μg/ml zeocin and 500 μg/ml G418 (MI-CHO), 4 μg/ml puromycin, 50 μg/ml zeocin and 2.5 μg/ml blasticidin (M2 and M4-CHO) or 50 μg/ml zeocin and 4 μg/ml puromycin (M3 and M5-CHO).
(§3) Cells are harvested at 80-90% confluence using Versene (GIBCO Cat#15040-066), collected by centrifugation and seeded 18-24 hours prior to running the calcium assay at a density of 5,000-10,000 cells/well in […], clear-bottomed 384-well plates (BD Biocoat, poly-D-lysine, Cat#356663). The day of the experiment, the cells are washed with a plate washer (Bioteck Instruments, ELX 405) using bath 1 buffer (140-mM NaCl, 4.5-mM KCl, 2-mM CaCl2, 1-mM MgCl2, 10-mM Hepes-Na, 10-mM Glucose, pH 7.4, with NaOH) containing 1 mM Probenecid. Next, the calcium dye Fluo-3 (25 μl well of Fluo-3 AM at 4 μM, Molecular Probes F-1241, in Bath 1 buffer containing 1 mM Probenecid) is added to the 25 μl of Bath 1 remaining in each well after the plate wash and the dye is loaded at 37° C. in the tissue culture incubator for 60-90 min. The fluorescent dye is removed using the plate washer with Bath 1 containing 1 mM Probenecid, leaving 25 μl/well of this solution after the wash. Alternatively, cells can be loaded with the calcium indicator from Molecular Devices (Calcium 3 Assay Reagents, Cat #R7181) adding 5 μl of a 5× solution dye in Bath 1 containing 1 mM Probenecid (10 ml per dye flask cat#R7182 to generate a solution 20×) to 20 μl of the same buffer. After loading for 60 min, the experiment can be run without having to remove the dye.
(§4) Compounds are prepared at a 2× fold concentration in a 96-well plate (round bottom, Costar Corning cat#3656), by reconstituting the pre-spotted compounds in bath 1 containing 1 mM probenecid. The final concentration DMSO is 0.5%, and the amount of DMSO is normalized across the assay plate. To determine an agonist action of the compounds on muscarinic receptors, the reconstituted compounds are added (25 μl compound/well) to the cell assay plate (containing 25 μl/well) using the multi-channel robotic system of the FLIPR 3 Instrument (Molecular Devices, Sunnyvale, Calif.). To determine a functional inhibitory action of the compounds on muscarinic receptors, the reconstituted compounds are added (25 μl compound/well) to the assay plate and pre-incubated for 15 min prior to adding 25 μl of Carbachol at 3× the EC80 for each muscarinic subtype. Alternatively, the compounds can be co-applied simultaneously with the agonist. In both assay modes, the fluorescence is recorded for 60 sec (excitation wavelength is […] and emission wavelength 540 nm) using the FLIPR 3 instrument.
(§5) The potency, efficacy and selectivity of the muscarinic compounds were evaluated by screening the compound activity across the whole family (M1 to M5 cells). Compounds were also screened for activity on other proteins such as other GPCRs and ion channels to determine selectivity on M4 receptors.
(§6) Examples of activities and efficacies of the muscarinic compounds of formulae (I, I-A, and I-B) on modulating M1 and M4 receptors are shown below in Table 4. […]

[2] = target: T2, M4 muscarinic receptor (Homo sapiens, UniProt P08173); experiment: Functional mobilization of intracellular calcium (FLIPR) in CHO cells expressing M4; type: cell-based; conditions: for pEC50: CHO cells expressing M4, calcium mobilization; for Emax: CHO, 100% efficacy is the maximum response obtained with the Carbachol control
T2 construct: expressed in transfected cells; host or cells: CHO
T2 sequence (P08173 1-479): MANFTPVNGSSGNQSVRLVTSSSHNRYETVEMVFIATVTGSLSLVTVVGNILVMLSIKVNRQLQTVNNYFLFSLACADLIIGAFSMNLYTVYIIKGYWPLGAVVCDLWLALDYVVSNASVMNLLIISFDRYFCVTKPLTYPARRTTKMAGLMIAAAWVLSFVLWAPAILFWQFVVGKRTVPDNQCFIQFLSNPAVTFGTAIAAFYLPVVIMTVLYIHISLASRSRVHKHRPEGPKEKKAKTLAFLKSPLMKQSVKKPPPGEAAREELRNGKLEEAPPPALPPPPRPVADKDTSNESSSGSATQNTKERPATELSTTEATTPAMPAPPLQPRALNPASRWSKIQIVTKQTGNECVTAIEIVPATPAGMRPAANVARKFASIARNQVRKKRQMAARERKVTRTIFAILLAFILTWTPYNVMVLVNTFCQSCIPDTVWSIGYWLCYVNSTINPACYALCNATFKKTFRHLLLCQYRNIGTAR
Procedure: as §1, §2, §3, §4, §5, §6

Compound | pEC50 [1] | Emax [1] | pEC50 [2] | Emax [2]
CCOC(=O)N1CCC(N2CCC3(CCC(=O)N(C)c4ccccc43)CC2)CC1 [Compound 21] | 5.00 to 5.70 | 25 to 100% | 5.00 to 5.70 | 25 to 100%
CN(C)C(=O)N1CCCC2(CCN(CC3CCCCC3)CC2)c2ccccc21 [Compound 27] | < 5.00 | < 25% | < 5.00 | < 25%
CC(=O)N1CCCC2(CCN(CCC(C)(C)C)CC2)c2ccccc21 [Compound 32] | 5.00 to 5.70 | < 25% | > 5.70 | 25 to 100%
NC(=O)N1CCCC2(CCN(CC3CCCCC3)CC2)c2ccccc21 [Compound 20] | < 5.00 | < 25% | 5.00 to 5.70 | < 25%
CN1C(=O)CCC2(CCN(C3C[C@@H]4CC[C@@H]3C4)CC2)c2ccccc21 (some centres unmarked) [Compound 35] | < 5.00 | < 25% | > 5.70 | 25 to 100%
NC(=O)N1CCCC2(CCN(C3CCCCCC3)CC2)c2ccccc21 [Compound 6] | < 5.00 | < 25% | < 5.00 | < 25%
CCOC(=O)N1C2CCC1CC(N1CCC3(CCC(=O)Nc4ccccc43)CC1)C2 (centres unmarked) [Compound 4] | > 5.70 | 25 to 100% | > 5.70 | 25 to 100%
CCOC(=O)N1C2CCC1CC(N1CCC3(CCC(=O)N(C)c4ccccc43)CC1)C2 (centres unmarked) [Compound 30] | > 5.70 | 25 to 100% | > 5.70 | 25 to 100%
CN1C(=O)CCC2(CCN(C3CC4CCC(C4)C3)CC2)c2ccccc21 (centres unmarked) [Compound 19, 1′-(bicyclo[3.2.1.]octan-3-yl)-1-methyl-3,4-dihydrospiro[benzo[b]azepine-5,4′-piperidin]-2(1H)-one] | > 5.70 | 25 to 100% | > 5.70 | 25 to 100%
CC(=O)N1CCCC2(CCN(CC3CC4C=CC3C4)CC2)c2ccccc21 (centres unmarked) [Compound 9] | < 5.00 | < 25% | > 5.70 | 25 to 100%
CN1C(=O)CCC2(CCN(CCC(C)(C)C)CC2)c2ccccc21 [Compound 3] | 5.00 to 5.70 | 25 to 100% | > 5.70 | 25 to 100%
CC(=O)N1CCCC2(CCN(CCC(C)C)CC2)c2ccccc21 [Compound 34] | < 5.00 | < 25% | < 5.00 | < 25%
O=C1CCC2(CCN(C3CC4CCC(C4)C3)CC2)c2ccccc2N1 (centres unmarked) [Compound 29] | > 5.70 | 25 to 100% | > 5.70 | 25 to 100%
CN(C)C(=O)N1CCCC2(CCN(C3CCCCCC3)CC2)c2ccccc21 [Compound 11] | < 5.00 | < 25% | < 5.00 | < 25%
CC(=O)N1CCCC2(CCN(C3C[C@@H]4CC[C@@H]3C4)CC2)c2ccccc21 (some centres unmarked) [Compound 17] | < 5.00 | < 25% | < 5.00 | < 25%
CCOC(=O)N1CCC(N2CCC3(CCCN(C(N)=O)c4ccccc43)CC2)CC1 [Compound 8] | > 5.70 | 25 to 100% | 5.00 to 5.70 | 25 to 100%
CCOC(=O)N1CCC(N2CCC3(CCCN(C(C)=O)c4ccccc43)CC2)CC1 [Compound 14] | > 5.70 | 25 to 100% | > 5.70 | 25 to 100%
CCOC(=O)N1CCC(N2CCC3(CCC(=O)Nc4ccccc43)CC2)CC1 [Compound 18] | > 5.70 | 25 to 100% | > 5.70 | 25 to 100%
CN(C)C(=O)N1CCCC2(CCN(C3C[C@@H]4CC[C@@H]3C4)CC2)c2ccccc21 (some centres unmarked) [Compound 33] | < 5.00 | < 25% | < 5.00 | < 25%
O=C1CCC2(CCN(CC3CC4C=CC3C4)CC2)c2ccccc2N1 (centres unmarked) [Compound 5] | 5.00 to 5.70 | 25 to 100% | > 5.70 | 25 to 100%
CN(C)C(=O)N1CCCC2(CCN(CCC(C)(C)C)CC2)c2ccccc21 [Compound 31] | < 5.00 | < 25% | > 5.70 | 25 to 100%
CCOC(=O)N1C2CCC1CC(N1CCC3(CCCN(C(N)=O)c4ccccc43)CC1)C2 (centres unmarked) [Compound 22] | > 5.70 | 25 to 100% | > 5.70 | 25 to 100%
CCOC(=O)N1C2CCC1CC(N1CCC3(CCCN(C(=O)N(C)C)c4ccccc43)CC1)C2 (centres unmarked) [Compound 10] | < 5.00 | < 25% | 5.00 to 5.70 | < 25%
O=C1CCC2(CCN(C3CCCCCC3)CC2)c2ccccc2N1 [Compound 24, 1′-cycloheptyl-3,4-dihydrospiro[benzo[b]azepine-5,4′-piperidin]-2(1H)-one] | > 5.70 | 25 to 100% | > 5.70 | 25 to 100%
CN1C(=O)CCC2(CCN(C3CCCCCC3)CC2)c2ccccc21 [Compound 12] | 5.00 to 5.70 | 25 to 100% | > 5.70 | 25 to 100%
CC(C)(C)CCN1CCC2(CCC(=O)Nc3ccccc32)CC1 [Compound 36, 1′-(3,3-dimethylbutyl)-3,4-dihydrospiro[benzo[b]azepine-5,4′-piperidin]-2(1H)-one] | > 5.70 | 25 to 100% | > 5.70 | 25 to 100%
CC(C)(C)CCN1CCC2(CCCN(C(N)=O)c3ccccc32)CC1 [Compound 13] | 5.00 to 5.70 | 25 to 100% | > 5.70 | 25 to 100%
NC(=O)N1CCCC2(CCN(C3CC4CCC(C4)C3)CC2)c2ccccc21 (centres unmarked) [Compound 16] | 5.00 to 5.70 | 25 to 100% | > 5.70 | 25 to 100%
CCOC(=O)N1CCC(N2CCC3(CCCN(C(=O)N(C)C)c4ccccc43)CC2)CC1 [Compound 23] | 5.00 to 5.70 | 25 to 100% | > 5.70 | 25 to 100%
